Calls of active or inactive are those of the source. The calls are words filed in the database; no cut-off is given here.
How the values were obtained:
ClpP1P2 [1] = target: ClpP1P2 (Mycobacterium tuberculosis (strain ATCC 25618 / H37Rv), UniProt P9WPC3+P9WPC5, E149K); test: Inhibition of Mtb ClpP1 E149K mutant expressed in Escherichia coli BL21(DE3)
[2] = test system: ClpP1P2 (Mycobacterium tuberculosis (strain ATCC 25618 / H37Rv)), P9WPC5+P9WPC3 [W174F]; test: Inhibition of Mtb ClpP1 W174F mutant expressed in Escherichia coli BL21(DE3)
ClpP1P2 [3] = target: ClpP1P2 (Mycobacterium tuberculosis (strain ATCC 25618 / H37Rv), UniProt P9WPC3+P9WPC5, W174I); test: Inhibition of Mtb ClpP1 W174I mutant expressed in Escherichia coli BL21(DE3)
[4] = test system: ClpP1P2 (Mycobacterium tuberculosis (strain ATCC 25618 / H37Rv)), P9WPC5+P9WPC3 [R119Q]; test: Inhibition of Mtb ClpP1 R119Q mutant expressed in Escherichia coli BL21(DE3)
ClpP1P2 [5] = target: ClpP1P2 (Mycobacterium tuberculosis (strain ATCC 25618 / H37Rv), UniProt P9WPC3+P9WPC5, H117N); test: Inhibition of Mtb ClpP1 H117N mutant expressed in Escherichia coli BL21(DE3)
ClpP1P2 [6] = target: ClpP1P2 (Mycobacterium tuberculosis (strain ATCC 25618 / H37Rv), UniProt P9WPC3+P9WPC5, W174A); test: Inhibition of Mtb ClpP1 W174A mutant expressed in Escherichia coli BL21(DE3)
[7] = test system: ClpP1P2 (Mycobacterium tuberculosis (strain ATCC 25618 / H37Rv)), P9WPC5+P9WPC3 [I146M]; test: Inhibition of Mtb ClpP1 I146M mutant expressed in Escherichia coli BL21(DE3)
ClpP1P2 [8] = target: ClpP1P2 (Mycobacterium tuberculosis (strain ATCC 25618 / H37Rv), UniProt P9WPC3+P9WPC5, M95W); test: Inhibition of Mtb ClpP1 M95W mutant expressed in Escherichia coli BL21(DE3)
[9] = Selectivity index, ratio of IC50 for full-length Staphylococcus aureus ClpP complex/Escherichia coli ClpX delta N mutant (62 to 425 residues) expressed in Escherichia coli BL21(DE3) using FITC-casein as substrate to IC50 for N-terminal His6-SUMO-tagged Mtb ClpP1 (7 to 200 residues)/ClpP2 (13 to 214 residues) complex expressed in Escherichia coli BL21(DE3)
ClpP1P2 [10] = target: ClpP1P2 (Mycobacterium tuberculosis (strain ATCC 25618 / H37Rv), UniProt P9WPC3+P9WPC5, I146T); test: Inhibition of Mtb ClpP1 I146T mutant expressed in Escherichia coli BL21(DE3)
[11] = test system: ClpP1P2 (Mycobacterium tuberculosis (strain ATCC 25618 / H37Rv)), P9WPC5+P9WPC3 [M75A]; test: Inhibition of Mtb ClpP1 M75A mutant expressed in Escherichia coli BL21(DE3)
ClpP1P2 [12] = target: ClpP1P2 (Mycobacterium tuberculosis (strain ATCC 25618 / H37Rv), UniProt P9WPC3+P9WPC5, E149R); test: Inhibition of Mtb ClpP1 E149R mutant expressed in Escherichia coli BL21(DE3)
ClpP1P2 [13] = target: ClpP1P2 (Mycobacterium tuberculosis (strain ATCC 25618 / H37Rv), UniProt P9WPC3+P9WPC5, E149Q); test: Inhibition of Mtb ClpP1 E149Q mutant expressed in Escherichia coli BL21(DE3)
ClpP1P2 [14] = target: ClpP1P2 (Mycobacterium tuberculosis (strain ATCC 25618 / H37Rv), UniProt P9WPC3+P9WPC5, I146L); test: Inhibition of Mtb ClpP1 I146L mutant expressed in Escherichia coli BL21(DE3)
[15] = test system: ClpP1P2 (Mycobacterium tuberculosis (strain ATCC 25618 / H37Rv)), P9WPC5+P9WPC3 [R119E]; test: Inhibition of Mtb ClpP1 R119E mutant expressed in Escherichia coli BL21(DE3)
[16] = test system: ClpP1P2 (Mycobacterium tuberculosis (strain ATCC 25618 / H37Rv)), P9WPC5+P9WPC3 [M95S]; test: Inhibition of Mtb ClpP1 M95S mutant expressed in Escherichia coli BL21(DE3)
[17] = test system: ClpP1P2 (Mycobacterium tuberculosis (strain ATCC 25618 / H37Rv)), P9WPC5+P9WPC3 [I146V]; test: Inhibition of Mtb ClpP1 I146V mutant expressed in Escherichia coli BL21(DE3)
ClpP1P2 [18] = target: ClpP1P2 (Mycobacterium tuberculosis (strain ATCC 25618 / H37Rv), UniProt P9WPC3+P9WPC5, Q142R); test: Inhibition of Mtb ClpP1 Q142R mutant expressed in Escherichia coli BL21(DE3)
ClpP1P2 [19] = target: ClpP1P2 (Mycobacterium tuberculosis (strain ATCC 25618 / H37Rv), UniProt P9WPC3+P9WPC5, I71F); test: Inhibition of Mtb ClpP1 I71F mutant expressed in Escherichia coli BL21(DE3)
ClpP1P2 [20] = target: ClpP1P2 (Mycobacterium tuberculosis (strain ATCC 25618 / H37Rv), UniProt P9WPC3+P9WPC5, E149T); test: Inhibition of Mtb ClpP1 E149T mutant expressed in Escherichia coli BL21(DE3)
[21] = test system: ClpP1P2 (Mycobacterium tuberculosis (strain ATCC 25618 / H37Rv)), P9WPC5+P9WPC3 [M75F]; test: Inhibition of Mtb ClpP1 M75F mutant expressed in Escherichia coli BL21(DE3)
ClpP1P2 [22] = target: ClpP1P2 (Mycobacterium tuberculosis (strain ATCC 25618 / H37Rv), UniProt P9WPC3+P9WPC5, H117A); test: Inhibition of Mtb ClpP1 H117A mutant expressed in Escherichia coli BL21(DE3)
ClpP1P2 [23] = target: ClpP1P2 (Mycobacterium tuberculosis (strain ATCC 25618 / H37Rv), UniProt P9WPC3+P9WPC5, R119S); test: Inhibition of Mtb ClpP1 R119S mutant expressed in Escherichia coli BL21(DE3)
[24] = test system: ClpP1P2 (Mycobacterium tuberculosis (strain ATCC 25618 / H37Rv)), P9WPC5+P9WPC3 [E149L]; test: Inhibition of Mtb ClpP1 E149L mutant expressed in Escherichia coli BL21(DE3)
[25] = test system: ClpP1P2 (Mycobacterium tuberculosis (strain ATCC 25618 / H37Rv)), P9WPC5+P9WPC3 [M95Q]; test: Inhibition of Mtb ClpP1 M95Q mutant expressed in Escherichia coli BL21(DE3)
[26] = test system: ClpP1P2 (Mycobacterium tuberculosis (strain ATCC 25618 / H37Rv)), P9WPC5+P9WPC3 [I71V]; test: Inhibition of Mtb ClpP1 I71V mutant expressed in Escherichia coli BL21(DE3)
[27] = test system: ClpP1P2 (Mycobacterium tuberculosis (strain ATCC 25618 / H37Rv)), P9WPC5+P9WPC3 [M95A]; test: Inhibition of Mtb ClpP1 M95A mutant expressed in Escherichia coli BL21(DE3)
[28] = test system: ClpP1P2 (Mycobacterium tuberculosis (strain ATCC 25618 / H37Rv)), P9WPC5+P9WPC3 [M75L]; test: Inhibition of Mtb ClpP1 M75L mutant expressed in Escherichia coli BL21(DE3)
ClpP1P2 [29] = target: ClpP1P2 (Mycobacterium tuberculosis (strain ATCC 25618 / H37Rv), UniProt P9WPC3+P9WPC5, Q142H); test: Inhibition of Mtb ClpP1 Q142H mutant expressed in Escherichia coli BL21(DE3)
ClpP1P2 [30] = target: ClpP1P2 (Mycobacterium tuberculosis (strain ATCC 25618 / H37Rv), UniProt P9WPC3+P9WPC5, S72T); test: Inhibition of Mtb ClpP1 S72T mutant expressed in Escherichia coli BL21(DE3)
ClpP1P2 [31] = target: ClpP1P2 (Mycobacterium tuberculosis (strain ATCC 25618 / H37Rv), UniProt P9WPC3+P9WPC5, M95L); test: Inhibition of Mtb ClpP1 M95L mutant expressed in Escherichia coli BL21(DE3)

COc1cc2c(Oc3ccc4[nH]c(C)cc4c3F)ncnc2cc1OCCCN1CCCC1 [CEDIRANIB]
IC50 (ClpP1P2 [1]): > 100 µM | inhibition [2]: inactive | IC50 (ClpP1P2 [3]): 12.8 µM | inhibition [4]: inactive | IC50 (ClpP1P2 [5]): > 50 µM | IC50 (ClpP1P2 [6]): 20.2 µM | inhibition [7]: inactive | IC50 (ClpP1P2 [8]): 7.5 µM | Ratio IC50 [9]: 9.6 | IC50 (ClpP1P2 [10]): 5.1 µM | inhibition [11]: Active | IC50 (ClpP1P2 [12]): 41.8 µM | IC50 (ClpP1P2 [13]): 6.3 µM | IC50 (ClpP1P2 [14]): 9.7 µM | inhibition [15]: inactive | inhibition [16]: inactive | inhibition [17]: inactive | IC50 (ClpP1P2 [18]): 9.5 µM | IC50 (ClpP1P2 [19]): 3.4 µM | IC50 (ClpP1P2 [20]): 7.6 µM | inhibition [21]: inactive | IC50 (ClpP1P2 [22]): 4.4 µM | IC50 (ClpP1P2 [23]): 42.2 µM | inhibition [24]: inactive | inhibition [25]: inactive | inhibition [26]: inactive | inhibition [27]: Active | inhibition [28]: inactive | IC50 (ClpP1P2 [29]): 14.4 µM | IC50 (ClpP1P2 [30]): > 54.5 µM | IC50 (ClpP1P2 [31]): 23.7 µM
